Source: ChEMBL document CHEMBL1153563, “Comparative in vitro activities of caspofungin and micafungin, determined using the method of the European Committee on Antimicrobial Susceptibility Testing, against yeast isolates obtained in France in 2005-2006” (2008)
Values after ≈ are worked out from the molar mass of the structure shown.

Legend:
Assay type in all cases: functional
[1] = tested on: Meyerozyma guilliermondii; assay: Antifungal activity against Candida guilliermondii after 24 to 48 hrs by AFST-EUCAST based broth microdilution method
Pichia kudriavzevii = assay: Antifungal activity against Candida krusei ATCC 6258 after 24 to 48 hrs by AFST-EUCAST based broth microdilution method
Nakaseomyces glabratus = assay: Antifungal activity against Candida glabrata after 24 to 48 hrs by AFST-EUCAST based broth microdilution method
Kluyveromyces marxianus = assay: Antifungal activity against Candida kefyr after 24 to 48 hrs by AFST-EUCAST based broth microdilution method
Cyberlindnera jadinii = assay: Antifungal activity against Candida utilis after 24 to 48 hrs by AFST-EUCAST based broth microdilution method; conditions: Williopsis jadinii
Debaryomyces hansenii = assay: Antifungal activity against Candida famata after 24 to 48 hrs by AFST-EUCAST based broth microdilution method
Kodamaea ohmeri = assay: Antifungal activity against Kodamaea ohmeri after 24 to 48 hrs by AFST-EUCAST based broth microdilution method
Candida tropicalis = assay: Antifungal activity against Candida tropicalis after 24 to 48 hrs by AFST-EUCAST based broth microdilution method
Yarrowia lipolytica = assay: Antifungal activity against Candida lipolytica after 24 to 48 hrs by AFST-EUCAST based broth microdilution method
[Candida] haemuloni = Antifungal activity against Candida haemulonii after 24 to 48 hrs by AFST-EUCAST based broth microdilution method; conditions: Candidozyma haemuli
Meyerozyma caribbica = assay: Antifungal activity against Candida fermentati after 24 to 48 hrs by AFST-EUCAST based broth microdilution method
Cryptococcus neoformans = assay: Antifungal activity against […] after 24 to 48 hrs by AFST-EUCAST based broth microdilution method
Cyberlindnera saturnus = assay: Antifungal activity against Williopsis saturnus after 24 to 48 hrs by AFST-EUCAST based broth microdilution method
Candida dubliniensis = assay: Antifungal activity against Candida dubliniensis after 24 to 48 hrs by AFST-EUCAST based broth microdilution method
Zygosaccharomyces = assay: Antifungal activity against Zygosaccharomyces after 24 to 48 hrs by AFST-EUCAST based broth microdilution method
Rhodotorula mucilaginosa = assay: Antifungal activity against Rhodotorula mucilaginosa after 24 to 48 hrs by AFST-EUCAST based broth microdilution method
Clavispora lusitaniae = assay: Antifungal activity against Candida lusitaniae after 24 to 48 hrs by AFST-EUCAST based broth microdilution method
Pichia fermentans = assay: Antifungal activity against Candida lambica after 24 to 48 hrs by AFST-EUCAST based broth microdilution method
[Candida] intermedia = Antifungal activity against Candida intermedia after 24 to 48 hrs by AFST-EUCAST based broth microdilution method; conditions: Sungouiella intermedia
Wickerhamomyces anomalus = assay: Antifungal activity against Candida pelliculosa after 24 to 48 hrs by AFST-EUCAST based broth microdilution method; conditions: Hansenula anomala
Diutina rugosa = assay: Antifungal activity against Candida rugosa after 24 to 48 hrs by AFST-EUCAST based broth microdilution method
Candida albicans = assay: Antifungal activity against Candida albicans after 24 to 48 hrs by AFST-EUCAST based broth microdilution method
Kluyveromyces lactis = assay: Antifungal activity against Candida sphaerica after 24 to 48 hrs by AFST-EUCAST based broth microdilution method
[Candida] inconspicua = Antifungal activity against Candida inconspicua after 24 to 48 hrs by AFST-EUCAST based broth microdilution method; conditions: Pichia inconspicua
Nakaseomyces nivariensis = assay: Antifungal activity against Candida nivariensis after 24 to 48 hrs by AFST-EUCAST based broth microdilution method
Trichosporon = assay: Antifungal activity against Trichosporon after 24 to 48 hrs by AFST-EUCAST based broth microdilution method
Candida parapsilosis = assay: Antifungal activity against Candida parapsilosis ATCC 22019 after 24 to 48 hrs by AFST-EUCAST based broth microdilution method; conditions: Lodderomyces parapsilosis
Pichia norvegensis = assay: Antifungal activity against Candida norvegensis after 24 to 48 hrs by AFST-EUCAST based broth microdilution method
Candida africana = assay: Antifungal activity against Candida africana after 24 to 48 hrs by AFST-EUCAST based broth microdilution method
Geotrichum = assay: Antifungal activity against Geotrichum after 24 to 48 hrs by AFST-EUCAST based broth microdilution method
Saccharomyces cerevisiae = assay: Antifungal activity against Saccharomyces cerevisiae after 24 to 48 hrs by AFST-EUCAST based broth microdilution method

CC[C@H](C)C[C@H](C)CCCCCCCCC(=O)N[C@H]1C[C@@H](O)[C@@H](NCCN)NC(=O)[C@@H]2[C@@H](O)CCN2C(=O)[C@H]([C@H](O)CCN)NC(=O)[C@H]([C@H](O)[C@@H](O)c2ccc(O)cc2)NC(=O)[C@@H]2C[C@@H](O)CN2C(=O)[C@H]([C@@H](C)O)NC1=O [CASPOFUNGIN]
MIC50 [1]: 2 µg/mL (≈ 1.83 µM)
MIC90 [1]: 2 µg/mL (≈ 1.83 µM)
MIC50 (Pichia kudriavzevii): 1 µg/mL (≈ 0.915 µM)
MIC90 (Pichia kudriavzevii): 2 µg/mL (≈ 1.83 µM)
MIC50 (Nakaseomyces glabratus): 0.5 µg/mL (≈ 0.457 µM)
MIC90 (Nakaseomyces glabratus): 1 µg/mL (≈ 0.915 µM)
MIC50 (Kluyveromyces marxianus): 0.25 µg/mL (≈ 0.229 µM)
MIC90 (Kluyveromyces marxianus): 0.5 µg/mL (≈ 0.457 µM)
MIC50 (Cyberlindnera jadinii): 0.5 µg/mL (≈ 0.457 µM)
MIC90 (Cyberlindnera jadinii): 1 µg/mL (≈ 0.915 µM)
MIC50 (Debaryomyces hansenii): 0.5 µg/mL (≈ 0.457 µM)
MIC90 (Debaryomyces hansenii): 1 µg/mL (≈ 0.915 µM)
MIC50 (Kodamaea ohmeri): 1 µg/mL (≈ 0.915 µM)
MIC90 (Kodamaea ohmeri): 16 µg/mL (≈ 14.6 µM)
MIC50 (Candida tropicalis): 0.5 µg/mL (≈ 0.457 µM)
MIC90 (Candida tropicalis): 1 µg/mL (≈ 0.915 µM)
MIC50 (Yarrowia lipolytica): 0.5 µg/mL (≈ 0.457 µM)
MIC90 (Yarrowia lipolytica): 1 µg/mL (≈ 0.915 µM)
MIC50 ([Candida] haemuloni): 1 µg/mL (≈ 0.915 µM)
MIC90 ([Candida] haemuloni): 2 µg/mL (≈ 1.83 µM)
MIC50 (Meyerozyma caribbica): 1 µg/mL (≈ 0.915 µM)
MIC90 (Meyerozyma caribbica): 2 µg/mL (≈ 1.83 µM)
MIC50 (Cryptococcus neoformans): 8 µg/mL (≈ 7.32 µM)
MIC90 (Cryptococcus neoformans): 16 µg/mL (≈ 14.6 µM)
MIC50 (Cyberlindnera saturnus): 1 µg/mL (≈ 0.915 µM)
MIC90 (Cyberlindnera saturnus): 16 µg/mL (≈ 14.6 µM)
MIC50 (Candida dubliniensis): 0.5 µg/mL (≈ 0.457 µM)
MIC90 (Candida dubliniensis): 1 µg/mL (≈ 0.915 µM)
MIC50 (Zygosaccharomyces): 1 µg/mL (≈ 0.915 µM)
MIC90 (Zygosaccharomyces): 16 µg/mL (≈ 14.6 µM)
MIC50 (Rhodotorula mucilaginosa): 16 µg/mL (≈ 14.6 µM)
MIC50 (Clavispora lusitaniae): 1 µg/mL (≈ 0.915 µM)
MIC90 (Clavispora lusitaniae): 1 µg/mL (≈ 0.915 µM)
MIC50 (Pichia fermentans): 0.5 µg/mL (≈ 0.457 µM)
MIC90 (Pichia fermentans): 1 µg/mL (≈ 0.915 µM)
MIC50 ([Candida] intermedia): 0.5 µg/mL (≈ 0.457 µM)
MIC90 ([Candida] intermedia): 1 µg/mL (≈ 0.915 µM)
MIC50 (Wickerhamomyces anomalus): 0.5 µg/mL (≈ 0.457 µM)
MIC90 (Wickerhamomyces anomalus): 1 µg/mL (≈ 0.915 µM)
MIC50 (Diutina rugosa): 0.5 µg/mL (≈ 0.457 µM)
MIC90 (Diutina rugosa): 1 µg/mL (≈ 0.915 µM)
MIC50 (Candida albicans): 0.5 µg/mL (≈ 0.457 µM)
MIC90 (Candida albicans): 0.5 µg/mL (≈ 0.457 µM)
MIC50 (Kluyveromyces lactis): 0.5 µg/mL (≈ 0.457 µM)
MIC90 (Kluyveromyces lactis): 1 µg/mL (≈ 0.915 µM)
MIC50 ([Candida] inconspicua): 0.5 µg/mL (≈ 0.457 µM)
MIC90 ([Candida] inconspicua): 1 µg/mL (≈ 0.915 µM)
MIC50 (Nakaseomyces nivariensis): 0.5 µg/mL (≈ 0.457 µM)
MIC90 (Nakaseomyces nivariensis): 1 µg/mL (≈ 0.915 µM)
MIC50 (Trichosporon): 16 µg/mL (≈ 14.6 µM)
MIC50 (Candida parapsilosis): 2 µg/mL (≈ 1.83 µM)
MIC90 (Candida parapsilosis): 2 µg/mL (≈ 1.83 µM)
MIC50 (Pichia norvegensis): 0.5 µg/mL (≈ 0.457 µM)
MIC90 (Pichia norvegensis): 1 µg/mL (≈ 0.915 µM)
MIC50 (Candida africana): 0.5 µg/mL (≈ 0.457 µM)
MIC90 (Candida africana): 1 µg/mL (≈ 0.915 µM)
MIC50 (Geotrichum): 1 µg/mL (≈ 0.915 µM)
MIC90 (Geotrichum): 16 µg/mL (≈ 14.6 µM)
MIC50 (Saccharomyces cerevisiae): 1 µg/mL (≈ 0.915 µM)
MIC90 (Saccharomyces cerevisiae): 16 µg/mL (≈ 14.6 µM)
